Test results reported in patent US7381705B2, “Inhibitors of hepatitis C virus” (The Administrators Of The Tulane Educational Fund, priority 2004, dated 2008).
Where two headings read alike, the source gives them in different places. Ends that are not written are not given here. Peptide text beside a SMILES is read from it.

Test system: HCV pseudotype (HIV core proteins, HCV E1 and E2 of strain H77)
Conditions: for Percent inhibition: 25 μM; for Inhibition of HCV pseudotype infectivity (in words): summary of Tables 7 and 8
[1] = HCV H77 1a E2 peptides at ~25 μM, Table 7, virus alone 448,123
[2] = HCV J4 1b E2 peptides at ~25 μM, Table 8, controls as in Table 7

Compound | Percent inhibition | Luciferase units [1] | Luciferase units [2] | Inhibition of HCV pseudotype infectivity (in words)
TKVCGAPPCVIGGVGNNT [compound 25] | 7.2% | 480,280 luciferase units (lumens) | – | –
AGVDGETHTTGRVAGHTT [compound 54, AGVDGETHTTGRVAGHTT] | 17.9% | – | 372,393 luciferase units (lumens) | –
INTNGSWHINSTALNCNE [peptide 6, INTNGSWHINSTALNCNE] | −12.3% | 503,446 luciferase units (lumens) | – | –
VGLLTPGAKQNIQLINTN [peptide 4, VGLLTPGAKQNIQLINTN] | 97.6% | 10,620 luciferase units (lumens) | – | inhibitory
LTPRCLVDYPYRLWHYPC [compound 107] | 11.1% | – | 402,976 luciferase units (lumens) | –
PVYCFTPSPVVVGTTDRS [compound 18, PVYCFTPSPVVVGTTDRS] | 2.9% | 435,026 luciferase units (lumens) | – | –
FYQHKFNSSGCPERLASC [compound 9] | −11.8% | 501,126 luciferase units (lumens) | – | –
WMNSTGFTKTCGGPPCNI [compound 100] | −15.6% | – | 518,190 luciferase units (lumens) | –
ITPRCMVDYPYRLWHYPC [compound 31] | 6.4% | 419,263 luciferase units (lumens) | – | –
SSGCPERLASCRRLTDFA [compound 10] | 25.4% | 334,196 luciferase units (lumens) | – | –
CC(C)C[C@H](NC(=O)[C@H](C)NC(=O)[C@H](C)NC(=O)[C@H](Cc1ccccc1)NC(=O)[C@H](Cc1ccccc1)NC(=O)CNC(=O)[C@@H](NC(=O)[C@H](CCC(N)=O)NC(=O)[C@H](CC(C)C)NC(=O)[C@H](CO)NC(=O)[C@H](CC(=O)O)NC(=O)[C@H](CC(N)=O)NC(=O)[C@H](CS)NC(=O)[C@@H](N)CC(N)=O)[C@@H](C)O)C(=O)N[C@@H](Cc1ccccc1)C(=O)N[C@@H](Cc1ccc(O)cc1)C(=O)N[C@@H](C)C(=O)N[C@@H](Cc1c[nH]cn1)C(=O)O [compound 85, NCNDSLQTGFFAALFYAH] | 74.9% | – | 112,260 luciferase units (lumens) | –
RCGSGPWITPRCMVDYPY [compound 30] | −46.2% | 655,040 luciferase units (lumens) | – | –
PASQVCGPVYCFTPSPVV [compound 93] | 9.7% | – | 409,220 luciferase units (lumens) | –
TDFAQGWGPISYANGSGL [compound 12, TDFAQGWGPISYANGSGL] | 6.8% | 417,706 luciferase units (lumens) | – | –
TTLPALSTGLIHLHQNIV [compound 42, TTLPALSTGLIHLHQNIV] | 19.1% | 353,516 luciferase units (lumens) | – | –
HRLEAACNWTRGERCDLE [compound 36] | −19.5% | 535,016 luciferase units (lumens) | – | –
GHTTSGFTSLFSSGASQK [compound 81, GHTTSGFTSLFSSGASQK] | −7.3% | – | 480,623 luciferase units (lumens) | –
PYCWHYAPRPCGVVPASQ [compound 91] | 69.1% | – | 160,883 luciferase units (lumens) | –
CSCC[C@H](N)C(=O)N[C@@H](Cc1ccc(O)cc1)C(=O)N[C@H](C(=O)NCC(=O)NCC(=O)N[C@H](C(=O)N[C@@H](CCC(=O)O)C(=O)N[C@@H](Cc1c[nH]cn1)C(=O)N[C@@H](CCCNC(=N)N)C(=O)N[C@@H](CC(C)C)C(=O)N[C@@H](CC(N)=O)C(=O)N[C@@H](C)C(=O)N[C@@H](C)C(=O)N[C@@H](CS)C(=O)N[C@@H](CC(N)=O)C(=O)N[C@@H](Cc1c[nH]c2ccccc12)C(=O)N[C@H](C(=O)N[C@@H](CCCNC(=N)N)C(=O)O)[C@@H](C)O)C(C)C)C(C)C [compound 110, MYVGGVEHRLNAACNWTR] | −34.5% | – | 602,506 luciferase units (lumens) | –
HINSTALNCNESLNTGWL [compound 7, HINSTALNCNESLNTGWL] | 14.9% | 381,340 luciferase units (lumens) | – | –
SSGCPERMASCRPIDWFA [compound 87] | 10.8% | – | 399,700 luciferase units (lumens) | –
ARVCSCLWMMLLISQAEA [compound 49] | 31.4% | 307,310 luciferase units (lumens) | – | –
HYPCTINYTIFKVRMYVG [compound 33, HYPCTINYTIFKVRMYVG] | 95.0% | 22,406 luciferase units (lumens) | – | inhibitory
YLYGVGSSIASWAIKWEY [compound 45, YLYGVGSSIASWAIKWEY] | 94.5% | 24,703 luciferase units (lumens) | – | inhibitory
MASCRPIDWFAQGWGPIT [compound 88, MASCRPIDWFAQGWGPIT] | 7.9% | – | 412,776 luciferase units (lumens) | –

Compound | Percent inhibition | Luciferase units [1] | Luciferase units [2] | Inhibition of HCV pseudotype infectivity (in words)
CC(C)C[C@H](NC(=O)[C@H](CCC(=O)O)NC(=O)[C@H](CO)NC(=O)[C@H](CCCNC(=N)N)NC(=O)[C@H](CC(=O)O)NC(=O)[C@H](CCCNC(=N)N)NC(=O)[C@H](CC(=O)O)NC(=O)[C@H](CCC(=O)O)NC(=O)[C@H](CC(C)C)NC(=O)[C@H](CC(N)=O)NC(=O)[C@H](CS)NC(=O)[C@H](CCCNC(=N)N)NC(=O)[C@H](CCC(=O)O)NC(=O)CNC(=O)[C@H](CCCNC(=N)N)NC(=O)[C@@H](NC(=O)[C@H](Cc1c[nH]c2ccccc12)NC(=O)[C@@H](N)CC(N)=O)[C@@H](C)O)C(=O)O [compound 112, NWTRGERCNLEDRDRSEL] | −17.8% | – | 527,950 luciferase units (lumens) | –
NNTRPPLGNWFGCTWMNS [compound 22, NNTRPPLGNWFGCTWMNS] | 45.2% | 245,900 luciferase units (lumens) | – | –
MYVGGVEHRLEAACNWTR [compound 35, MYVGGVEHRLEAACNWTR] | 66.7% | 153,553 luciferase units (lumens) | – | –
SPVVVGTTDRSGAPTYSW [compound 19, SPVVVGTTDRSGAPTYSW] | 32.7% | 301,406 luciferase units (lumens) | – | –
PTDCFRKHPEATYTKCGS [compound 104] | 6.3% | – | 419,876 luciferase units (lumens) | –
QVLPCSFTTLPALSTGLI [compound 41, QVLPCSFTTLPALSTGLI] | 3.0% | 434,743 luciferase units (lumens) | – | –
SIASWAIKWEYVVLLFLL [compound 46, SIASWAIKWEYVVLLFLL] | 77.0% | 103,040 luciferase units (lumens) | – | inhibitory
GNWFGCTWMNSTGFTKVC [compound 23] | 17.9% | 367,916 luciferase units (lumens) | – | –
GNRILICPTDCFRKHPEA [compound 103] | 31.8% | – | 305,690 luciferase units (lumens) | –
NWTRGERCDLEDRDRSEL [compound 37, NWTRGERCDLEDRDRSEL] | −30.7% | 585,553 luciferase units (lumens) | – | –
HRLNAACNWTRGERCNLE [compound 111] | −39.2% | – | 632,613 luciferase units (lumens) | –
LASCRRLTDFAQGWGPIS [compound 11, LASCRRLTDFAQGWGPIS] | 19.6% | 360,410 luciferase units (lumens) | – | –
FYAHKFNSSGCPERMASC [compound 86] | 11.2% | – | 398,110 luciferase units (lumens) | –
KWEYVVLLFLLLADARVC [compound 47, KWEYVVLLFLLLADARVC] | 56.4% | 195,320 luciferase units (lumens) | – | –
CC[C@H](C)[C@H](NC(=O)CNC(=O)[C@H](CS)NC(=O)[C@@H]1CCCN1C(=O)[C@H](CCCNC(=N)N)NC(=O)[C@@H]1CCCN1C(=O)[C@@H]1CCCN1C(=O)[C@H](Cc1ccc(O)cc1)NC(=O)[C@H](Cc1c[nH]cn1)NC(=O)[C@H](Cc1c[nH]c2ccccc12)NC(=O)[C@H](CS)NC(=O)[C@H](Cc1ccc(O)cc1)NC(=O)[C@@H]1CCCN1)C(=O)N[C@H](C(=O)N1CCC[C@H]1C(=O)N[C@@H](C)C(=O)N[C@@H](CCCCN)C(=O)N[C@@H](CO)C(=O)O)C(C)C [compound 15, PYCWHYPPRPCGIVPAKS] (H-PYCWHYPPRPCGIVPAKS-OH; N-terminus and C-terminus assumed) | 43.5% | 253,410 luciferase units (lumens) | – | –
PVYCFTPSPVVVGTTDRS [compound 94, PVYCFTPSPVVVGTTDRS] | 30.4% | – | 311,736 luciferase units (lumens) | –
WMNSTGFTKVCGAPPCVI [compound 24] | 19.7% | 391,886 luciferase units (lumens) | – | –
YTIFKVRMYVGGVEHRLE [compound 34, YTIFKVRMYVGGVEHRLE] | 21.8% | 354,696 luciferase units (lumens) | – | –
ARVCACLWMMLLIAQAEA [compound 121] | 24.5% | – | 338,200 luciferase units (lumens) | –
QILPCAFTTLPALSTGLI [compound 116, QILPCAFTTLPALSTGLI] | 12.1% | – | 394,096 luciferase units (lumens) | –
TYSWGENETDVMLLNNTR [compound 97, TYSWGENETDVMLLNNTR] | 51.2% | – | 218,673 luciferase units (lumens) | –
LFLLLADARVCACLWMML [compound 120] | −3.4% | – | 463,243 luciferase units (lumens) | –
DYPYRLWHYPCTINYTIF [compound 32, DYPYRLWHYPCTINYTIF] | 81.0% | 85,086 luciferase units (lumens) | – | inhibitory
KCGSGPWLTPRCLVDYPY [compound 106] | 60.4% | – | 193,533 luciferase units (lumens) | –
